Laboratory results published in patent US20190382320A1, “ENHANCED STABILITY OF UREASE INHIBITOR-CONTAINING COMPOSITIONS” (Koch Agronomic Services, LLC, priority 2017, published 2019).

What was measured:
[1] = Hydrolysis of NBPT adduct-containing compositions at varying pH (OPPTS 835.2120), LC-MS monitoring; type: physicochemical; details: pH=4, 50° C.
Procedure: NBPT adduct-containing compositions were prepared by a method similar to that described in Example 1, with the exception that acetonitrile, rather than N-methylpyrrolidone was used as the solvent and, after <20 wt. % of free NBPT remained (based on UPLC testing), the acetonitrile was evaporated. As such, the NBPT in the “adduct-containing composition” subjected to hydrolysis according to the method of Example 2 is initially partially in adduct form and partially in free form (i.e., the composition includes both NBPT-containing adduct and free NBPT).
The NBPT adduct-containing compositions were hydrolyzed in accordance with OPPTS 835.2120 guidelines (https://www.regulations.gov/document?D=EPA-HQ-OPPT-2009-0152-0009), which are incorporated herein by reference. Specifically, samples comprising the NBPT adducts were subjected to various pH conditions (pH=4, pH=7, and pH=9) to evaluate the hydrolysis profiles at these varying pH values at 50° C. for 5 days. Hydrolysis of the NBPT adduct-containing compositions (by evaluating total NBPT adduct concentration as well as free NBPT concentration (i.e., NBPT in non-adduct form)) was monitored at hourly-to-daily intervals by liquid chromatography-mass spectroscopy (LC-MS), with secondary detection via ultraviolet (UV) detection at 200 nm. […]

[2] = NBPT hydrolysis over time in acetonitrile; type: physicochemical; details: in acetonitrile (no hydrolysis conditions)
Source text: FIGS. 4A and 4B present data on a study of NBPT hydrolysis over time in acetonitrile. As shown, little change is observed over the course of the study.

CCCCNP(N)(N)=S [free NBPT, N-(n-butyl) thiophosphoric triamide]
amount of free NBPT in the composition ([1]; day 3): minimal
amount of free NBPT in the composition ([1]; day 4): completely gone
change of overall amount over the course of the study [2]: not actively degraded
